In patent US20070299079A1, “4-AMINO-PYRIDO[3,2-e]PYRAZINES, THEIR USE AS INHIBITORS OF PHOSPHODIESTERASE 10, AND PROCESSES FOR PREPARING THEM” (priority 2006, published 2007):

Target: T1, PDE10 from rat striatum (Rattus norvegicus, UniProt Q9QYJ6)
T1 construct: 0.5 g of the isolated and frozen striatum was homogenised; from tissue; host or cells: striatum of male Wistar rats, anion-exchange FPLC fractions
T1 sequence (Q9QYJ6 1-794): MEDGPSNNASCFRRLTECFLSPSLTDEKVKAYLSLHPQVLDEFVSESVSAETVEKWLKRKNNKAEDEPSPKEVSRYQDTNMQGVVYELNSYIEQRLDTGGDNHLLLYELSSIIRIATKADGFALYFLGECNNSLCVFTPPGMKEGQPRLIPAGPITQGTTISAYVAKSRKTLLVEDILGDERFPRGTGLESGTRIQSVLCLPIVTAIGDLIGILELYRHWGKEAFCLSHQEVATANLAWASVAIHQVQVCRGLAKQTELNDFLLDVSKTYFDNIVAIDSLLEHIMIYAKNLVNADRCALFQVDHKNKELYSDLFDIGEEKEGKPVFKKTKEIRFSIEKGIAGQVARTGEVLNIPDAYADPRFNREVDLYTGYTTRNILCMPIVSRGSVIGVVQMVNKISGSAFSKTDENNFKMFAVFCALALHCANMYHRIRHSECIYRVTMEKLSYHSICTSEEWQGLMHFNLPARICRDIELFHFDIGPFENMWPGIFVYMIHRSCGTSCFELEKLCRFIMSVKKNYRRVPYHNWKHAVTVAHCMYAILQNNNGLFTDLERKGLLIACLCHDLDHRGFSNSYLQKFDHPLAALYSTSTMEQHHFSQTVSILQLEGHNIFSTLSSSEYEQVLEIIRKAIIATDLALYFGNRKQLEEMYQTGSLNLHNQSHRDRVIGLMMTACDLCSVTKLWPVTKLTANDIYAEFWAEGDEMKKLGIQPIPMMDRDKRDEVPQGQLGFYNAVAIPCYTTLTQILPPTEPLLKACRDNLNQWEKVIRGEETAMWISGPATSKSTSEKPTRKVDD
Assay: Inhibition of PDE10 from rat striatum
Type: biochemical
Details: not given
Protocol: Phosphodiesterase isoenzyme 10 (PDE10) activity was determined in preparations of rat, pig and guinea pig striatum respectively. Striatum from male Wistar rats (180-200 g), male hybrid pigs (150 kg) and male guinea pigs (CRL (HA), 500 g) respectively were collected and frozen at −70° C.
For the enzymatic testing of PDE10 activity 0.5 g of the isolated and frozen striatum was homogenised in 10 ml 50 mM Tris/Mg-buffer at 4° C. and centrifuged for one hour at 100000 g.
Nonspecific activity was tested without the enzyme. […] For determination of IC50 values the Hill-plot, 2-parameter-model, was used.

Row | Compound | IC50 [nM]
1 | COc1ccc(Cc2nccc3cc(OC)c(OC)cc23)cc1OC [Papaverine, reference compound] | 142

Same assay, conditions: rat striatum preparation, 0.1 μM [3H]-cAMP, 37° C., 30 minutes; read-out: Inhibition of PDE10 from rat IC50

Row | IC50 [nM] | Compound
2 | 237 | COc1ccc2nc(Cl)c3cnc(C(C)C)n3c2n1 [Intermediate A14]

Same assay, conditions: substrate Km, rat striatum

Row | Km [µM] | Compound
3 | 1.8 | Nc1nc2c(ncn2[C@@H]2O[C@@H]3COP(=O)(O)O[C@H]3[C@H]2O)c(=O)[nH]1 [cGMP]

Test system: MK-801-induced hyperactivity and stereotyped sniffing
Assay: MK-801-induced hyperactivity and stereotyped sniffing, animal model of psychosis
Type: in vivo, rat
Details: female Wistar rats, p.o. 30 min prior to test, MK-801 0.1 mg/kg i.p., activity recorded 1 h
Protocol: Female Wistar rats (Crl: (WI) BR, Charles River, Sulzfeld, Germany) weighing 150 to 180 g were used for the MK-801-induced psychosis. Animals were housed under standard conditions in groups of five on a 12 h light/dark cycle (light on at 0600 h) with ad libitum access to food (Pellets, ssniff M/R 15, Spezialdiät GmbH, Soest/Westfalen) and water.
MK-801 (dizocilpine, MW 337.37) was obtained by Tocris, distributed by Biotrend Chemikalien GmbH, Köln, Germany.
Hydroxyethylcellulose was solved in distilled water.
MK-801 was dissolved in saline so that an administration volume of 0.5 ml/100 g was reached. The suspensions and solution were placed on a magnetic stirrer before and during dosing procedures.
The behaviour induced by the NMDA antagonist MK-801 is generally accepted as a rat model of psychosis. MK-801 induces stereotyped sniffing and hyperactivity in rats after intraperitoneal administration.
Locomotor activity of the rats was recorded by the MotiTest Apparatus (TSE, Bad Homburg, Germany). The test area consisted of a squared arena (45×45 cm) with protective plexiglass walls (20 cm of height) where rats could freely move. Horizontal movements were recorded by 32 infrared photocells arranged along the bottom of each wall of the arena. Activity [sec] was measured by the computer program “ActiMot” (TSE, Bad Homburg, Germany).
Stereotyped sniffing was scored by the experimenter every five minutes for one hour (12 intervals) according to the method described by Andiné et al. (1999). The scores of the 12 intervals were summed up at the end of the experiment.
The day of experiment the female rats were placed in the laboratory and received the test compound or vehicle at the appropriate time prior to test. MK-801 0.1 mg/kg was intraperitoneally administered 10 minutes prior to test.
At the beginning of the test the rats were placed in the centre of the squared arena of the MotiTest apparatus. Behaviour of the rats was recorded for one hour. After each run animals were removed and the boxes thoroughly cleaned and dried.
Results were analysed by one way analysis of variance (ANOVA). Tukey test was used for individual comparison. P<0.05 was regarded as significant.
MK-801 at 0.1 mg/kg i.p. was administered 10 min before testing. […] Activity and stereotyped sniffing was recorded for 1 h. Co=control without MK-801 stimulation, Cs=control with MK-801 stimulation. Significant to MK-801 stimulated control (=Cs): * p<0.05, *** p<0.001.

Row | Compound | Dose from which MK-801-induced hyperactivity is significantly reversed [mg/kg]
4 | 4-amino-1-(2-chloro-phenyl)-8-methoxy-3-methyl-imidazo[1,5-a]pyrido[3,2-e]pyrazine [Example 11] | ≥ 0.5
5 | 4-amino-8-methoxy-3-methyl-1-propyl-imidazo[1,5-a]pyrido[3,2-e]pyrazine [Example 1] | ≥ 10

Same assay, conditions: female Wistar rats, p.o. 30 min prior to test, MK-801 0.1 mg/kg i.p., sniffing scored 1 h

Row | Compound | Dose from which MK-801-induced stereotyped sniffing is significantly reversed [mg/kg]
6 | 4-amino-1-(2-chloro-phenyl)-8-methoxy-3-methyl-imidazo[1,5-a]pyrido[3,2-e]pyrazine [Example 11] | ≥ 0.5
7 | 4-amino-8-methoxy-3-methyl-1-propyl-imidazo[1,5-a]pyrido[3,2-e]pyrazine [Example 1] | ≥ 10

Test system: not given
Assay: not given
Details: not given

Row | melting point [°C] | Compound
8 | 135 to 138 | CCCN1CC(C)=C(N(C(C)=O)C(C)=O)C2=C1N1CN(OC)C=C1C=N2 [Example 39, 4-(N,N-diacetyl-amino)-8-methoxy-3-methyl-1-propyl-imidazo[1,5-a]pyrido[3,2-e]pyrazine]
9 | 62 to 65 | CCCCNC1=C(C)CN(CC)C2=C1N=CC1=CN(OC)CN12 [Example 20, 4-(N-butyl-amino)-1-ethyl-8-methoxy-3-methyl-imidazo[1,5-a]pyrido[3,2-e]pyrazine]
10 | 224 to 227 | CCN1CC(C)=C(N2CCN(c3ccccc3)CC2)C2=C1N1CN(OC)C=C1C=N2
11 | 77 to 80 | CCCN1CC(C)=C(NC2CCCC2)C2=C1N1CN(OC)C=C1C=N2 [Example 23, 4-(N-cyclopentyl-amino)-8-methoxy-3-methyl-1-propyl-imidazo[1,5-a]pyrido[3,2-e]pyrazine]
12 | 210 to 213 | CCCN1CC(C)=C(NC(C)=O)C2=C1N1CN(OC)C=C1C=N2 [Example 38, 4-(N-acetyl-amino)-8-methoxy-3-methyl-1-propyl-imidazo[1,5-a]pyrido[3,2-e]pyrazine]
13 | 93 to 95 | CCN1CC(C)=C(NC2CCCC2)C2=C1N1CN(OC)C=C1C=N2 [Example 22, 4-(N-cyclopentyl-amino)-1-ethyl-8-methoxy-3-methyl-imidazo[1,5-a]pyrido[3,2-e]pyrazine]
14 | 218 to 220 | CCCN1CC(C)=C(n2ccnn2)C2=C1N1CN(OC)C=C1C=N2 [Example 32, 8-methoxy-3-methyl-1-propyl-4-(1,2,3-triazol-1-yl)-imidazo[1,5-a]pyrido[3,2-e]pyrazine]
15 | 140 to 142 | CCCN1CC(C)=C(NCC)C2=C1N1CN(OC)C=C1C=N2 [Example 17, 4-(N-ethyl-amino)-8-methoxy-3-methyl-1-propyl-imidazo[1,5-a]pyrido[3,2-e]pyrazine]
16 | 135 to 136 | CCN1CC(C)=C(N(C(C)=O)C(C)=O)C2=C1N1CN(OC)C=C1C=N2 [Example 41, 4-(N,N-diacetyl-amino)-1-ethyl-8-methoxy-3-methyl-imidazo[1,5-a]pyrido[3,2-e]pyrazine]

More lines, now with the values behind:

Row | Compound | melting point [°C]
17 | CON1C=C2C=Nc3c(ncc(-c4ccccc4)c3N)N2C1 [Example 15, 4-amino-8-methoxy-3-phenyl-imidazo[1,5-a]pyrido[3,2-e]pyrazine] | 252 to 253
18 | CON1C=C2C=NC3=C(N(CCC(F)(F)F)CC(C)=C3N)N2C1 [Example 8, 4-amino-8-methoxy-3-methyl-1-(3,3,3-trifluoropropyl)-imidazo[1,5-a]pyrido[3,2-e]pyrazine] | 273 to 276
19 | CCN1CC(C)=C(N2CCOCC2)C2=C1N1CN(OC)C=C1C=N2 [Example 24, 1-ethyl-8-methoxy-3-methyl-4-morpholino-imidazo[1,5-a]pyrido[3,2-e]pyrazine] | 132 to 133
20 | CCN1CC(C)=C(NCc2ccccc2)C2=C1N1CN(OC)C=C1C=N2 [Example 21, 4-(N-benzyl-amino)-1-ethyl-8-methoxy-3-methyl-imidazo[1,5-a]pyrido[3,2-e]pyrazine] | 127 to 128
21 | CCCN1CC(C)=C(NC)C2=C1N1CN(OC)C=C1C=N2 [Example 16, 4-(N-methyl-amino)-8-methoxy-3-methyl-1-propyl-imidazo[1,5-a]pyrido[3,2-e]pyrazine] | 111 to 113
22 | CCCN1CC(C)=C(N(C)C)C2=C1N1CN(OC)C=C1C=N2 [Example 19, 4-(N,N-dimethyl-amino)-8-methoxy-3-methyl-1-propyl-imidazo[1,5-a]pyrido[3,2-e]pyrazine] | 93 to 95

Target: T2, PDE10 from pig striatum (Sus scrofa, UniProt A0A287B941)
Assay: not given
Details: not given

Row | IC50 [nM] | Compound
23 | 395 | 8-methoxy-3-methyl-4-(2-methyl-imidazol-1-yl)-1-propyl-imidazo[1,5-a]pyrido[3,2-e]pyrazine [Example 34]
24 | 25 | 8-methoxy-3-methyl-1-propyl-4-(1,2,4-triazol-1-yl)-imidazo[1,5-a]pyrido[3,2-e]pyrazine [Example 33]
25 | 137 | 8-methoxy-3-methyl-1-propyl-4-pyrrolidino-imidazo[1,5-a]pyrido[3,2-e]pyrazine [Example 26]
26 | 302 | 8-methoxy-3-methyl-4-piperidino-1-propyl-imidazo[1,5-a]pyrido[3,2-e]pyrazine [Example 27]

Row | Compound | IC50 [nM]
27 | 8-methoxy-3-methyl-1-propyl-4-(pyrazol-1-yl)-imidazo[1,5-a]pyrido[3,2-e]pyrazine hydro chloride [Example 30] | 155

Target: T2, PDE10 from pig striatum
Assay: Inhibition of PDE10 from pig striatum
Details: read-out: Km value of the substrate for PDE10 from pig striatum
Protocol: For the enzymatic testing of PDE10 activity 0.5 g of the isolated and frozen striatum was homogenised in 10 ml 50 mM Tris/Mg-buffer at 4° C. and centrifuged for one hour at 100000 g. The supernatant is called the cytosolic fraction and was removed and stored on ice. The pellet was resuspended in the same buffer, but containing 1% Triton and incubated for 45 min at 4° C. Both fractions were independently applied onto a 5 ml Hi Trap™ QHP column at the Äkta-FPLC. After washing the columns the bound PDE protein was eluted with an increasing sodium chloride gradient (0 mM-500 mM sodium chloride) in 50 mM Tris/Mg-buffer at 4° C. for the cytosolic fraction and in the presence of 1% Triton for the membrane fraction. […] The fractions with PDE10-activity were pooled and frozen in aliquots until use at −20° C.
PDE10 activity was determined in a one step procedure in microtiterplates. […] Nonspecific activity was tested without the enzyme. The reaction was initiated by addition of the substrate solution and was carried out at 37° C. for 30 minutes. Enzymatic activity was stopped by addition of 25 μl YSi—SPA-beads (Amersham-Pharmacia). One hour later the mixture was measured in a liquid scintillation counter for microtiterplates (Microbeta Trilux). To pipette the incubation mixture a robot Biomek (Fa. Beckman) is used. […] For determination of IC50 values the Hill-plot, 2-parameter-model, was used.

Row | Km [µM] | Compound
28 | 2.2 | Nc1nc2c(ncn2[C@@H]2O[C@@H]3COP(=O)(O)O[C@H]3[C@H]2O)c(=O)[nH]1 [cGMP]
